Converted amounts (≈) assume the structure as drawn.
What was measured:
[1] = molecular target: T1, Macrophage colony-stimulating factor 1 receptor (Mus musculus, UniProt P09581); assay: Inhibition of CSF1-induced CSF1R signalling in mouse BMDM cells assessed as reduction in ERK1/2 phosphorylation preincubated for 30 mins followed by CSF1 addition and measured after 10 mins; type: cell-based
T1 sequence (P09581 whole entry): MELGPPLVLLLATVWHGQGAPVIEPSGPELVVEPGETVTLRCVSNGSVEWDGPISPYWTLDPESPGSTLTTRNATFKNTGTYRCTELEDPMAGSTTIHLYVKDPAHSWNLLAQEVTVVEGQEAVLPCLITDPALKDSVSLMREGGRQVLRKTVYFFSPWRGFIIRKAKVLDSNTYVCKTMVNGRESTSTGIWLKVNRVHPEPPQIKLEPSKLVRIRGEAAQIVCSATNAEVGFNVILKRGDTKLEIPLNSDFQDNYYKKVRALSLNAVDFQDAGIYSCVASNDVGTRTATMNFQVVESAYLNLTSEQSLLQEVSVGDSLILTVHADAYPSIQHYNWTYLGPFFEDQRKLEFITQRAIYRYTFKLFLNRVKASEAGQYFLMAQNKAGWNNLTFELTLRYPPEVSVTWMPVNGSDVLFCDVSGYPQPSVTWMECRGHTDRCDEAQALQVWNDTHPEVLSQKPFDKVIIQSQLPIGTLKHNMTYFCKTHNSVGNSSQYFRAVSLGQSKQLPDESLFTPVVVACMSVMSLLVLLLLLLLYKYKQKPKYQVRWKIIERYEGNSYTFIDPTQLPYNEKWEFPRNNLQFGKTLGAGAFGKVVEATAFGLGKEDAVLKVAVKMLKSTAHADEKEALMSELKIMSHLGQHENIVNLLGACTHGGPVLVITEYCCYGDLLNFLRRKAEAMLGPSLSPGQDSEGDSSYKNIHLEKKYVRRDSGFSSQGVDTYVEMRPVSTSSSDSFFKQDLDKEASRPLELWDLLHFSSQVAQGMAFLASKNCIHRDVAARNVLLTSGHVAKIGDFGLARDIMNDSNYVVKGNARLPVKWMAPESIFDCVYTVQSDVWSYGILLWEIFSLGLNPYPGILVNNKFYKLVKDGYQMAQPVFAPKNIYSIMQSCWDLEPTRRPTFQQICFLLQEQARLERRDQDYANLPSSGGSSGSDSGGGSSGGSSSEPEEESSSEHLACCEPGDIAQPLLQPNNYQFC

[2] = molecular target: T2, Macrophage colony-stimulating factor 1 receptor (Homo sapiens, UniProt P07333); assay: Binding affinity to non-autoinhibited form of CSF1R (unknown origin) assessed as dissociation constant incubated for 1 hr by qPCR based Hill equation analysis
[3] = tested on: Tyrosine-protein kinase ABL1 (Homo sapiens), P00519 [H396P]; assay: Competitive binding affinity to human ABL1 H396P mutant at 500 nM incubated for 1 hr by qPCR analysis relative to control
[4] = molecular target: T3, Macrophage colony-stimulating factor 1 receptor (Mus musculus) (UniProt P09581); assay: Inhibition of CSF1-induced CSF1R signalling in mouse BMDM cells assessed as reduction in ERK1/2 phosphorylation by measuring fold change preincubated for 30 mins followed by CSF1 addition and measured after 10 mins relative to pexidartinib; type: cell-based; details: time 40.0 min
T3 sequence (whole entry): T1 sequence (P09581 whole entry)

[5] = tested on: T4, Receptor-type tyrosine-protein kinase FLT3 (Homo sapiens), P36888 [D835V]; assay: Competitive binding affinity to human FLT3 D835V mutant at 500 nM incubated for 1 hr by qPCR analysis relative to control
T4 sequence (whole entry): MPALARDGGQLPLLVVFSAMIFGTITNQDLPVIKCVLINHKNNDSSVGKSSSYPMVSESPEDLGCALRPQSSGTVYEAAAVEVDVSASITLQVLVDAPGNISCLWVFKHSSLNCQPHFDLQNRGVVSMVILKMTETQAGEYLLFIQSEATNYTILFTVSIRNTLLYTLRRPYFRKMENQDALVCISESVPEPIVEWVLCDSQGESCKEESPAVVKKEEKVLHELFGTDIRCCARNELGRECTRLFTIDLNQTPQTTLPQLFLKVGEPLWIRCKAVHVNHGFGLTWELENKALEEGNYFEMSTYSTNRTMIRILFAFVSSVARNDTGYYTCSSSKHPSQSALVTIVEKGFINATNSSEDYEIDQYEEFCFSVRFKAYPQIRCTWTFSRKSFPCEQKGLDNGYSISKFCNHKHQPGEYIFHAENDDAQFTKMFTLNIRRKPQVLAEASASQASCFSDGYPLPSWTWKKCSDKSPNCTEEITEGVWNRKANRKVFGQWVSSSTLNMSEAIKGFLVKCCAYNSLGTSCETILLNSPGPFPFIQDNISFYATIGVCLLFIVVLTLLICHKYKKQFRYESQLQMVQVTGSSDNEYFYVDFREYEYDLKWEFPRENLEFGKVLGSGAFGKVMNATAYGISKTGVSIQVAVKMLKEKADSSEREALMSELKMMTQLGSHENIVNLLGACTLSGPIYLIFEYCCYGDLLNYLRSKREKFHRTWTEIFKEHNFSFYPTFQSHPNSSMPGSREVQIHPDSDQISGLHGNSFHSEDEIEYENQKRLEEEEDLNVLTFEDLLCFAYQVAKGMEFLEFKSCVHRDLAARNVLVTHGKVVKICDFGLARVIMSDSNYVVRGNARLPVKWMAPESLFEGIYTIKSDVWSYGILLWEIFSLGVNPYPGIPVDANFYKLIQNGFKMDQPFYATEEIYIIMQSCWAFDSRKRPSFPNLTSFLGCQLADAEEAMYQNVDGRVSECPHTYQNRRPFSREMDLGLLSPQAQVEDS

[6] = molecular target: T2, Macrophage colony-stimulating factor 1 receptor; assay: Inhibition of CSF1R (unknown origin) using FRET-peptide as substrate incubated in presence of ATP by FRET based Z-LYTE assay
[7] = molecular target: Platelet-derived growth factor receptor beta (Homo sapiens) (UniProt P09619); assay: Inhibition of human PDGFRbeta binding to streptavidin-coated magnetic beads immobilized biotinylated ligand at 500 nM incubated for 1 hr by qPCR analysis relative to control
[8] = Kinetic aqueous solubility of compound at pH 7.4 at 500 uM incubated for 90 mins by spectrophotometry analysis; type: physicochemical; details: buffer, read-out: Kinetic_solubility

T2 sequence (P07333 whole entry): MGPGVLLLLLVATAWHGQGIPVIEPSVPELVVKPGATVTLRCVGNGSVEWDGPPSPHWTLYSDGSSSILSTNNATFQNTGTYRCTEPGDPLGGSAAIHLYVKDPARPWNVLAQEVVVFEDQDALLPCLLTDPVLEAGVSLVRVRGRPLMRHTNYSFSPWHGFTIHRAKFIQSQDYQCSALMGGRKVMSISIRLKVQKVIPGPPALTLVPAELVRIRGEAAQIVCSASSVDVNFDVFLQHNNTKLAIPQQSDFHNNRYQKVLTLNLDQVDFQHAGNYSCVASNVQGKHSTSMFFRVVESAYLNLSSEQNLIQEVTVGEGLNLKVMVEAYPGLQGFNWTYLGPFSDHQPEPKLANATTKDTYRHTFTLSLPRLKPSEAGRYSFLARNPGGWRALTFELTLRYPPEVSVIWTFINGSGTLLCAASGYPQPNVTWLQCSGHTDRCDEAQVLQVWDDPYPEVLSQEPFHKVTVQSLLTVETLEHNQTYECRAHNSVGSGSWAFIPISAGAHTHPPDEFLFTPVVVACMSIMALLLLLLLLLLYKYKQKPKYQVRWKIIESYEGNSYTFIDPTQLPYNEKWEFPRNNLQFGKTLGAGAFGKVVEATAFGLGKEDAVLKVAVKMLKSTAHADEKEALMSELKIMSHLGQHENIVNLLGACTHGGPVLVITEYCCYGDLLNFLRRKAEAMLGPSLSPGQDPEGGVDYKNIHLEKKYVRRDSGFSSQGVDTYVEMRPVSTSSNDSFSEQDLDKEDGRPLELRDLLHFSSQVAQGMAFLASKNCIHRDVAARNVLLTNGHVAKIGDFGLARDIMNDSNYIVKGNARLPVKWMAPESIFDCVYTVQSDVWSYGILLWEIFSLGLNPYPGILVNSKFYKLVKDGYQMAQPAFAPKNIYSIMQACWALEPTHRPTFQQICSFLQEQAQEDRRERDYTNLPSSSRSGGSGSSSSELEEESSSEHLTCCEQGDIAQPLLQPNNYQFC
Chain of Platelet-derived growth factor receptor beta (Homo sapiens) (P09619 whole entry): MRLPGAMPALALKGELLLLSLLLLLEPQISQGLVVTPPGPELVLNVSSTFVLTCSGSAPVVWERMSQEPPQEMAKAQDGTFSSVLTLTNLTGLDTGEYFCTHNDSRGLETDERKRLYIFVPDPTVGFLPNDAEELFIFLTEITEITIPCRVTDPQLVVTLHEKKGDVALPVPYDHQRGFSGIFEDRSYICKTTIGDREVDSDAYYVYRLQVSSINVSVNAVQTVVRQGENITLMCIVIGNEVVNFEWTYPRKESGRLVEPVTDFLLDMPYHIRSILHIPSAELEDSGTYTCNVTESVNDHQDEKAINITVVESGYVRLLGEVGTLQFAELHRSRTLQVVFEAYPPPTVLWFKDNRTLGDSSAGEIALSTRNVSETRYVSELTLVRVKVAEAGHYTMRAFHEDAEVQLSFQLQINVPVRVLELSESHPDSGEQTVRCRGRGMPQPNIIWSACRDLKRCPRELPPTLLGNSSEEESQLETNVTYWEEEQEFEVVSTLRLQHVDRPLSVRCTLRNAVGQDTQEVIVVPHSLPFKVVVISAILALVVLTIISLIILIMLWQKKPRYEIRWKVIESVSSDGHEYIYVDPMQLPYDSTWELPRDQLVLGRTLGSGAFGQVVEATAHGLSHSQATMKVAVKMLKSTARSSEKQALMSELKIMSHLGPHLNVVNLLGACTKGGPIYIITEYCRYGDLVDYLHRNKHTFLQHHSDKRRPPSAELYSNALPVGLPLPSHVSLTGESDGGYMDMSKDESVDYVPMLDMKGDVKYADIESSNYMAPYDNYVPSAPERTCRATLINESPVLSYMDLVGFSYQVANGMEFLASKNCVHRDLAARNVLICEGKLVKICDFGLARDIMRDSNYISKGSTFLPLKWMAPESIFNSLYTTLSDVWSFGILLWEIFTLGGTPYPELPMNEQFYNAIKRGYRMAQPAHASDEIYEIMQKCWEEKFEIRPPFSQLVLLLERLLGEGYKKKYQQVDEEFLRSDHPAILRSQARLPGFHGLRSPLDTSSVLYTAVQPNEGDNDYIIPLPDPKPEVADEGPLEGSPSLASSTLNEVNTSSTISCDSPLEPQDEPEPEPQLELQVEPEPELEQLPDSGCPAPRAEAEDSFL

IC50 [1]: 40 nM
Kd [2]: 220 nM
Activity [3]: 96%
fold change (FC) [4]: 0.4
Activity [5]: 92%
IC50 [6]: 0.5 nM
inhibition [7]: 12%
solubility kinetic at […], 500 µM [8]: 3.5 µM (≈ 1.18 µg/mL)
SMILES: CN(CC1CCCC1)c1ncnc2[nH]c(-c3ccc(CO)cc3)nc12
